Marks after values point to notes of the source that are not given here.
Experiments:
[1] = molecular target: T1, Y2-like receptors (Rattus norvegicus, UniProt Q9ERC0); assay: Inhibition of the vagally evoked increase in pulse interval in anaesthetised rats (prejunctional activity); format: in vivo; settings: compared with Ac[Leu28,Leu31]NPY(24-36)
T1 construct: from tissue; host or cells: anaesthetised Wistar rat, cardiac vagal nerve endings (in vivo)
T1 sequence (Q9ERC0 1-381): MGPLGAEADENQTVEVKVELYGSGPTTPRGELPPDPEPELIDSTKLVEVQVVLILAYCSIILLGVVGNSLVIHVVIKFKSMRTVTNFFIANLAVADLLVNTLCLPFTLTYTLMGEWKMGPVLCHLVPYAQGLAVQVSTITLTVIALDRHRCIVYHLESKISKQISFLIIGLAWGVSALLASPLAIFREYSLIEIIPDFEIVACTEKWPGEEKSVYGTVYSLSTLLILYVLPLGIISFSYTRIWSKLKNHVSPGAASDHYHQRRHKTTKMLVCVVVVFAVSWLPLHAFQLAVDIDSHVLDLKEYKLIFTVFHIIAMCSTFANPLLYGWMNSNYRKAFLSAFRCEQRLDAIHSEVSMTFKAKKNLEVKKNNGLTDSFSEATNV
Method: (§1) Experiments were carried out on adult rats (Wistar) of both sexes (250-350 g), anaesthetised with sodium pentobarbitone (Nembutal, Boehringer-Ingleheim; 60 mg/kg, i.p.). The trachea was cannulated and the animal artificially ventilated. The femoral vein was cannulated for administration of peptides and further doses of anaesthetic. The left femoral artery was cannulated to record arterial pressure. Both vagus nerves were cut. […] The frequency was chosen to increase pulse interval by approximately 100 ms, a submaximal effect on this variable. The electrocardiogram was measured using needle electrodes and monitored on one channel of an osciloscope. Pulse interval (the period between successive beats of the heart) was recorded beat-by-beat by triggering from ECG. Pulse interval and arterial pressure were recorded on the pen recorder.
Dose-response curves were constructed from group data for all rats. Because of the long time-course of action of the peptides tested, not all peptides were given to each rat. Usually however, each rat received neuropeptide Y and two other peptides.
(§2) As an indication of prejunctional activity two parameters were measured; the maximum percent inhibition of the increase in pulse interval evoked by stimulation of the vagus nerve following injection of peptide and the time to half recovery of this effect (T50). For pressor action, an indicator of postjunctional activity, two parameters were also measured; the peak pressor response following injection of peptide and the duration of the increase in blood pressure. These indices give a reliable measure of the actions of a peptide at pre- and postjunctional sites, and have been used previously in this laboratory for this purpose; Potter et al., 1989; Potter et al., 1991). Results were analysed using a one-way ANOVA.

[2] = molecular target: T2, human Y1 receptor (Homo sapiens, UniProt P25929); assay: [125I]NPY receptor binding assay on SK-N-MC cells
T2 construct: host or cells: SK-N-MC cells (thawed, needle-disrupted cells)
T2 sequence (P25929 1-384): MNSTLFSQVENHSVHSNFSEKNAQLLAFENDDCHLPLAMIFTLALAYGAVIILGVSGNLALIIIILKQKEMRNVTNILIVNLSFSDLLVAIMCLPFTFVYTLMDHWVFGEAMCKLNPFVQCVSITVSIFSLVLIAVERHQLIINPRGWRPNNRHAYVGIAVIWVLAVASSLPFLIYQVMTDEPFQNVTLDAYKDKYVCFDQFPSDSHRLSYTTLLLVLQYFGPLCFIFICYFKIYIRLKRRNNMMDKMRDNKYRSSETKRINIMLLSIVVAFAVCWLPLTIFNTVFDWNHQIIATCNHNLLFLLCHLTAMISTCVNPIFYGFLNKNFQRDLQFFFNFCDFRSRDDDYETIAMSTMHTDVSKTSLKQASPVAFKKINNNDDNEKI
Method: (§3) SK-N-MC cells expressing the human Y1 receptor and SMS-MSN cells expressing the human Y2 receptor were obtained from the ATCC. They were cultured in 1:1 DMEM:Ham's F12 medium (ICN) containing 10% fetal calf serum, 0.1% non-essential amino acids, 0.2 mM glutamine, and 0.056% sodium bicarbonate. Confluent cells were harvested in scraping and pellets were stored at −80° C. On the day of use cells were thawed, washed once in binding buffer salts, passed several times through a 22 ga. needle, and the protein content was assayed using bicinchoninic acid (BCA kit, Pierce).
(§4) Just before use, plates were filtered and washed twice with 50 mM Tris-HCI pH 7.4/0.1% BSA. […] Binding was terminated by filtration. Filters were washed twice by rapid filtration with […] volumes of 50 mM Tris-HCI pH 7.4/0.1% BSA at 2° C., and counted on an LKB gamma counter. Specific binding was analysed by non-linear regression using a single-site fitting function (Graphpad Prism). Non-specific binding was defined by binding in the presence of 1 μM competitor.

[3] = molecular target: T3, Y1 receptors (Rattus norvegicus, UniProt P21555); assay: Pressor response (increase in blood pressure) in anaesthetised rats (postjunctional activity); format: in vivo
T3 construct: from tissue; host or cells: anaesthetised Wistar rat, vasculature (in vivo)
T3 sequence (P21555 1-382): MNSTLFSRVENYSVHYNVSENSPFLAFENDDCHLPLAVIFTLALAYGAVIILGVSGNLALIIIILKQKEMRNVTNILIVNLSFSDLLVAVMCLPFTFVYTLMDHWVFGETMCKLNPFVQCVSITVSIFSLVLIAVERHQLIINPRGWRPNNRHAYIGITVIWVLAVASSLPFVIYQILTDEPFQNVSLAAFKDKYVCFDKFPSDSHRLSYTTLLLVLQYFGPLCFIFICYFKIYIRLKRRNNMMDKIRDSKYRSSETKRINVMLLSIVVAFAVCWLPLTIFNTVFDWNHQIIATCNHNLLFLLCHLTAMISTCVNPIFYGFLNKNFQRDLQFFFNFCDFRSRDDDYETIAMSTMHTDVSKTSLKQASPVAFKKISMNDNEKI
Method: as §1, with “The” for “The frequency was chosen to increase pulse interval by approximately 100 ms, a submaximal effect on this variable. The”
Dose-response curves were constructed from group data for all rats. Because of the long time-course of action of the peptides tested, not all peptides were given to each rat.
as §2, with “These indices give a reliable measure of the actions of a peptide at pre- and postjunctional sites, and have been used previously in this laboratory for this purpose; Potter et al., 1989; Potter et al., 1991).” left out

[4] = molecular target: T4, human Y2 receptor (Homo sapiens, UniProt P49146); assay: [125I]NPY receptor binding assay on SMS-MSN cells
T4 construct: host or cells: SMS-MSN cells (thawed, needle-disrupted cells)
T4 sequence (P49146 1-381): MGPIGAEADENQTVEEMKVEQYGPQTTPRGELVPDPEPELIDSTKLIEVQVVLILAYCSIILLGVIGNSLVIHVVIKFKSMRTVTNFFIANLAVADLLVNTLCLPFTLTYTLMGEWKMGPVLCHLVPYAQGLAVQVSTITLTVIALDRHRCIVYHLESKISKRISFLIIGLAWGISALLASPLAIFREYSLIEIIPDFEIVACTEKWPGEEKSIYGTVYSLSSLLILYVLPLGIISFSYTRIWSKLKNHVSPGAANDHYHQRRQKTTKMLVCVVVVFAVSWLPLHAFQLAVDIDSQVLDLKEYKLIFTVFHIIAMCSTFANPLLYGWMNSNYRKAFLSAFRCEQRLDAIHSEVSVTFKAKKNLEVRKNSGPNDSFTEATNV
Method: as §3, §4

[5] = system: Y2-like receptors mediating inhibition of transmitter release from renal nerves; assay: Increase of renal vascular resistance elicited by renal sympathetic nerve stimulation; format: in vivo, dog; settings: 40 nmol dose; FIG. 1
Method: Experiments were carried out in six, adult, mongrel dogs of both sexes weighing between 18 and 26 kg. The dogs were anaesthetised with a bolus injection of sodium pentobarbitone (36 mg/kg intravenous; Nembutal, Boehringer Ingelheim) and then maintained on an infusion (2-3 mg/kg/hr). The animal was artificially ventilated, maintained at constant temperature and blood pressure and heart rate were monitored continuously.
The left kidney was exposed retroperitoneally and renal arterial blood flow was monitored continuously (Pernow & Lundberg, 1989a), using a transonic flow probe (Transonic System Inc., N.Y.). Postganglionic nerves to the kidney were isolated, cut and placed over bipolar, platinum electrodes for stimulation (1-10 Hz, 5-10 V, 1-5 msec).
The renal nerve was stimulated over a range of frequencies (1-10 Hz) for 30 secs and a frequency-response curve constructed. The responses were measured at the peak change in flow. […] Responses were reported as change in vascular resistance.

[6] = molecular target: T5, neuropeptide Y Y1 receptor type (Homo sapiens, UniProt P25929); settings: SK-N-MC cells; cited from earlier work
T5 construct: host or cells: SK-N-MC human cells
T5 sequence (P25929 1-384): T2 sequence (P25929 1-384)

[7] = molecular target: T6, human neuropeptide Y Y1 receptor (Homo sapiens, UniProt P25929); settings: fibroblast cells; cited from earlier work
T6 sequence (P25929 1-384): T2 sequence (P25929 1-384)

[8] = molecular target: T7, neuropeptide Y Y2 receptor subtype (Homo sapiens, UniProt P49146); settings: SMS-KAN cells; cited from earlier work
T7 construct: host or cells: SMS-KAN human neuroblastoma cells
T7 sequence (P49146 1-381): T4 sequence (P49146 1-381)

[9] = anaesthetised rats, †: No response to 10 nmole dose

Substance | Increase in BP (rel to NPY) [3, 9] | other results
Ac-ARAALNAATRQRY-NH2 [Ac[A24,26,27,30,31,L28]NPY24-36] | 0† | Inhibition of the effect of vagal stimulation on heart rate, in words [1]: enhanced in vivo activity at Y2 receptors; IC50 [2]: > 1000 nM
Ac-ARHALNLLTRQRY-NH2 [Ac[A24,A27,L28,L31]NPY24-36] | 0† | Inhibition of the effect of vagal stimulation on heart rate, in words [1]: enhanced in vivo activity at Y2 receptors; Affinity for NPY Y2 receptors, in words [4]: high affinity for NPY Y2 receptors; Direct effect on the circulation ([3]; 40 nmol dose): no direct effect on the circulation; Inhibition of the increase of renal vascular resistance elicited by renal nerve stimulation [5]: almost completely inhibited the effect of nerve stimulation
Ac-ARHYLNLLTRQRY-NH2 [Ac[A24,L28,L31]NPY24-36] | 0† | IC50 [4]: 19.3 nM
Ac-LAHYLNLLTRQRY-NH2 [Ac[A25,L28,L31]NPY24-36] | 0† | 
Ac-LAHYRNLLTRQRY-NH2 [Ac[A25,R28,L31]NPY24-36] | 0† | 
Ac-LRAYLNLLTRQRY-NH2 [Ac[A26,L28,L31]NPY24-36] | 0† | 
Ac-LRHALNLLTRQRY-NH2 [Ac[A27,L28,L31]NPY24-36] | 0† | 
Ac-LRHYANLLTRQRY-NH2 [Ac[A28,L31]NPY24-36] | 0† | 
Ac-LRHYLALLTRQRY-NH2 [Ac[L28,A29,L31]NPY24-36] | 0† | 
Ac-LRHYLNALTRQRY-NH2 [Ac[L28,A30,L31]NPY24-36] | 0† | 
Ac-LRHYLNLATRQRY-NH2 [Ac[L28,A31]NPY24-36] | 0† | 
Ac-LRHYLNLLARQRY-NH2 [Ac[L28,L31,A32]NPY24-36] | 0† | 
Ac-LRHYLNLLTRQRY-NH2 [Ac[L28,L31]NPY24-36] [listing 1 of 2 here] |  | Affinity for the neuropeptide Y Y1 receptor type, in words [6]: no affinity; Stimulation of the Y1 receptor to induce an increase in cytosolic calcium [7]: did not stimulate; Increase in BP (rel to NPY) ([3]; rat, in vivo): 0†; Affinity for the neuropeptide Y Y2 receptor subtype, in words [8]: significant affinity
Ac-LRHYLNLLTRQRY-NH2 [Ac[L28,L31]NPY24-36] [listing 2 of 2 here] |  | IC50 [2]: > 100 nM
AcNPY24-36 [reference compound] | 0† | 
Ac[A26,27,L28,31]NPY24-36 (Ac-LRAALNLLTRQRY-NH2; ends and bridges not checked) |  | Inhibition of the effect of vagal stimulation on heart rate, in words [1]: enhanced in vivo activity at Y2 receptors
Ac[L28,I30]NPY24-36 (Ac-LRHYLNIITRQRY-NH2; ends and bridges not checked; UniProt P01303 52-64, looked up, variant I28L L30I) | 0† | 

Reference: patent US6696409B1 (priority 1996, dated 2004)
